One data set concerns the target T1, EphB3 kinase (Homo sapiens, UniProt P54753).
T1 construct: purchased Reaction Biology Co. (Kinase HotSpot service)
T1 sequence (P54753 34-998): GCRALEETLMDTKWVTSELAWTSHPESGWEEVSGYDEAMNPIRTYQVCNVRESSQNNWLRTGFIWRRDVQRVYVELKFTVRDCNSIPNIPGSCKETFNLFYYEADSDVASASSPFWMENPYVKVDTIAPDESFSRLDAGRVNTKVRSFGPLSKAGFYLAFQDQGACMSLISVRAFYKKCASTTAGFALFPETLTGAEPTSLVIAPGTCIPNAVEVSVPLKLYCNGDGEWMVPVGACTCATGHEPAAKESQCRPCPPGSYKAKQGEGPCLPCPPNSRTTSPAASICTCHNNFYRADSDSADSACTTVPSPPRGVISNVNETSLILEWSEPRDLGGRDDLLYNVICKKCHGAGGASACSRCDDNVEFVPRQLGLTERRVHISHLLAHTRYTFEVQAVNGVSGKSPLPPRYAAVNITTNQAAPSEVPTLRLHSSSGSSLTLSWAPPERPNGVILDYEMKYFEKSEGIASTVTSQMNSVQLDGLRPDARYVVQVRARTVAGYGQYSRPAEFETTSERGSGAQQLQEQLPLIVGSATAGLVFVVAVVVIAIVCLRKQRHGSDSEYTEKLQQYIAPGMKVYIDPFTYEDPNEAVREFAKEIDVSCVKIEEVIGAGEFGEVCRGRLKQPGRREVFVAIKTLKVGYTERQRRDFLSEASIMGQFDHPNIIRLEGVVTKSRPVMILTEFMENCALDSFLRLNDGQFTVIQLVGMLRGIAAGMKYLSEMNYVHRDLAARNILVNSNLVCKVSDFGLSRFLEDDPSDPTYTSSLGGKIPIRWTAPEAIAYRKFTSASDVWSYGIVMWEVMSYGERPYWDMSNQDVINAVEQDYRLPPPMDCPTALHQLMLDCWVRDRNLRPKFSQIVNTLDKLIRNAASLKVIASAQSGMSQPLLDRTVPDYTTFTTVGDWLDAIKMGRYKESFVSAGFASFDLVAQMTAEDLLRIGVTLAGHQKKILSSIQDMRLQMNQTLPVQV
Kind of data set: EphB3 kinase inhibition assay (HotSpot). The class given is biochemical. Here is the method: The synthesized compounds were subjected to in vitro screening over EphB3 kinase. A single dose of 10 µM concentration of each target compound was used in EphB3 kinase inhibition assay, at 10 µM ATP, applying HotSpot^SM technology.
(§1) The HotSpot assay platform contains specific kinase/substrate pairs along with required cofactors. Base reaction buffer: 20 mM Hepes (pH 7.5), 10 mM MgCl2, 1 mM EGTA, 0.02% Brij35, 0.02 mg/mL BSA, 0.1 mM Na3VO4, 2 mM DTT, 1% DMSO. The tested compounds were dissolved in 100% DMSO to specific concentration. The serial dilution was conducted by Integra Viaflo Assist in DMSO (Sigma-Aldrich, Burlington, MA, USA). The reaction mixture containing the examined compound and 33P-ATP was incubated at room temperature for 2 h, and radioactivity was detected by filter-binding method. Kinase activity data were expressed as the percent remaining kinase activity in test samples compared to vehicle (dimethyl sulfoxide) reactions. IC50 values and curve fits were obtained using Prism (GraphPad Software, San Diego, CA, USA).

For a further data set, the target named is T2, CDK2/cyclin A (Homo sapiens, UniProt P24941).
T2 construct: purchased Reaction Biology Co. (Kinase HotSpot service)
Kind of data set: Kinase panel assay, CDK2/cyclin A. The class given is biochemical. To be noted: read-out: Average % Enzyme Inhibition (Relative to DMSO Controls) at 10 µM. How it is done: as §1, with “The screening of the tested compounds was performed using the Kinase HotSpot^SM service from Reaction Biology Co. (http://www.reactionbiology.com, accessed on 25 September 2021). The HotSpot” for “The HotSpot”

The next data set deals with T3, Aurora A (Homo sapiens, UniProt O14965).
T3 construct: purchased Reaction Biology Co. (Kinase HotSpot service)
T3 sequence (O14965 1-403): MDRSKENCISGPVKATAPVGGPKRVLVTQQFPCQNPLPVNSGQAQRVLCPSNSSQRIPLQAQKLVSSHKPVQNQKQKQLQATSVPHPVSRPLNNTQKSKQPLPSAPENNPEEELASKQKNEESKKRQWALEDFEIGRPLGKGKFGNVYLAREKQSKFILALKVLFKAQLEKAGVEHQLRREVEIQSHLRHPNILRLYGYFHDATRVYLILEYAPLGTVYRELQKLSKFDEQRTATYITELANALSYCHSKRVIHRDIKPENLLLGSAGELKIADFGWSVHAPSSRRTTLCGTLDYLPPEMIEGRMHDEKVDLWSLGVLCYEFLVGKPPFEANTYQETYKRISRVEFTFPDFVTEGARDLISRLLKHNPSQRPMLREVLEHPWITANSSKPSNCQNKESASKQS
Kind of data set: Kinase panel assay, Aurora A. The class given is biochemical. As to conditions: read-out: Average % Enzyme Inhibition (Relative to DMSO Controls) at 10 µM. How it is done: as §1, with “The screening of the tested compounds was performed using the Kinase HotSpot^SM service from Reaction Biology Co. (http://www.reactionbiology.com, accessed on 25 September 2021). The HotSpot” for “The HotSpot”

The next data set deals with T4, ERBB2/HER2 (Homo sapiens, UniProt P04626).
T4 construct: purchased Reaction Biology Co. (Kinase HotSpot service)
Kind of data set: Kinase panel assay, ERBB2/HER2. In kind it is biochemical. To be noted: ERBB2/HER2, 10 µM; read-out: Average % Enzyme Inhibition (Relative to DMSO Controls) at 10 µM. How it is done:
as §1, with “The screening of the tested compounds was performed using the Kinase HotSpot^SM service from Reaction Biology Co. (http://www.reactionbiology.com, accessed on 25 September 2021). The HotSpot” for “The HotSpot”

Like-named read-outs stand apart in the source and are kept apart here. Bounds are passed on as bounds.

T4 sequence (P04626 23-1255): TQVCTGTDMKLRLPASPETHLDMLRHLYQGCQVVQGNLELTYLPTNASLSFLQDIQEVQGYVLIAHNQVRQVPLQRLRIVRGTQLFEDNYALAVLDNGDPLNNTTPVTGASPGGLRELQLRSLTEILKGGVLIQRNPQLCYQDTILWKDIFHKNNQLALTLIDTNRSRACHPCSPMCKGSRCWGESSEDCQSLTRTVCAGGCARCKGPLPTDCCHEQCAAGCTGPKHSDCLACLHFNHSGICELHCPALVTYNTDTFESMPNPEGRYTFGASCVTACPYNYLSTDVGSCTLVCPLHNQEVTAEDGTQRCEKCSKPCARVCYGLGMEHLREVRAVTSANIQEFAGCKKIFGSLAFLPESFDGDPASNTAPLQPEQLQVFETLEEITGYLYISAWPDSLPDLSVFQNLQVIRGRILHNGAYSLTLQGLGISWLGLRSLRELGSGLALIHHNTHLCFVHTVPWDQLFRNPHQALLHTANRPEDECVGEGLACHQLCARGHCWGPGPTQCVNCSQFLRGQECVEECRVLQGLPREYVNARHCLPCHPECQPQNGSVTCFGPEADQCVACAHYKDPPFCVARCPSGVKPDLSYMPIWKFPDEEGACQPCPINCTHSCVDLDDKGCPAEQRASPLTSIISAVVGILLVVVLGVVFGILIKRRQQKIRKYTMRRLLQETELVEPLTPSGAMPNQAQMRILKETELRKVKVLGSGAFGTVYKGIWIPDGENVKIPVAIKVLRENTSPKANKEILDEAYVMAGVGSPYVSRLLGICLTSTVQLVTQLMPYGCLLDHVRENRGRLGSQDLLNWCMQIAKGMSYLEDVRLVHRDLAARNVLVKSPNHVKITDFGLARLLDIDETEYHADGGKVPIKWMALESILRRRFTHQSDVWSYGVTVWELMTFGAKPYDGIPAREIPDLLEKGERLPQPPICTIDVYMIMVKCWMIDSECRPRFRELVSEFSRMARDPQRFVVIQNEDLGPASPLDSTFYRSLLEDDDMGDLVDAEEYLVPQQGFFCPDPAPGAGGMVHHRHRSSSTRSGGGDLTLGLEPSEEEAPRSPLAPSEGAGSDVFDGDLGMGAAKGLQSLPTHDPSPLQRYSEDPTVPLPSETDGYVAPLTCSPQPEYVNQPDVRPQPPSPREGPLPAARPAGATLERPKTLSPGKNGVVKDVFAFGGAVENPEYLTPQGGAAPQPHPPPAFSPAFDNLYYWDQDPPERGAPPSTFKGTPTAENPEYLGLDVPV

The compound `NS(=O)(=O)c1ccc(Nc2ncnc3ccc(-c4cccc(O)c4)cc23)cc1` [Compound 4c, 4-((6-(3-Hydroxyphenyl)quinazolin-4-yl)amino)benzenesulfonamide] registered a melting point of 313.2 to 315.1 °C. Besides, on EphB3 kinase (EphB3 kinase, 10 µM compound, 10 µM ATP, read-out: Average % Enzyme Inhibition at 10 µM (Relative to DMSO Control)), the inhibition at 10 µM was greater than 93%. Moreover, the IC50 on EphB3 kinase (EphB3 kinase, dose dependent assay, read-out: IC50) amounted to 1040 nM. The concentration for half-maximal inhibition (IC50) on EphB3 kinase (EphB3 kinase, read-out: EC50 of the curve fit printed in Figure 5 (IC50 per legend)) came to 1040 nM. At EphB3 kinase (from IC50 values, EphB3 over EphB1), the “selectivity for EphB3 over EphB1 isoform” value is reported as “six”. Moreover, the inhibition at 10 µM at CDK2/cyclin A was 75 ± 2.07%. Moreover, the inhibition at 10 µM on Aurora A came to 67.9 ± 4.93%. Also, the inhibition at 10 µM at ERBB2/HER2 worked out at 67.8 ± 0.99%.

The record behind these values is paper PMC8708751, “Hit Identification of a Novel Quinazoline Sulfonamide as a Promising EphB3 Inhibitor: Design, Virtual Combinatorial Library, Synthesis, Biological Evaluation, and Docking Simulation Studies” (Pharmaceuticals, 2021).
